Experimental data from patent publication US20200079765A1, “SUBSTITUTED HETEROARYL PYRROLONES AND SALTS THEREOF AND USE THEREOF AS HERBICIDAL ACTIVE SUBSTANCES” (Bayer CropScience Aktiengesellschaft, priority 2016, published 2020).

Tests used:
Alopecurus myosuroides = assay: Post-emergence herbicidal action (Experimental Part 1, A); assay type: in vivo; conditions: about 3 weeks after treatment, 100% = plants have died, 0% = like control plants
Description: (§1) Seeds of monocotyledonous and dicotyledonous weeds and crop plants were placed in sandy loam in plastic or wood-fiber pots, covered with soil and cultivated in a greenhouse under controlled growth conditions. 2 to 3 weeks after sowing, the test plants were treated at the one-leaf stage. The compounds of the invention, formulated in the form of wettable powders (WP) or as emulsion concentrates (EC), were then sprayed onto the green parts of the plants as aqueous suspension or emulsion with addition of 0.5% additive at a water application rate of 600 l/ha (converted). After the test plants had been kept in the greenhouse under optimum growth conditions for about 3 weeks, the activity of the preparations was rated visually in comparison to untreated controls. For example, 100% activity=the plants have died, 0% activity=like control plants. Tables A1 to A14 below show the effects of selected compounds of the general formula (I) according to Tables I.1 to I.116 on various harmful plants and an application rate corresponding to 1280 g/ha or 320 g/ha, which were obtained by the experimental procedure mentioned above.

Setaria viridis = assay: as above; assay type: in vivo; conditions: about 3 weeks after treatment, 100% = plants have died, 0% = like control plants
Description: as §1

Polygonum convolvulus = assay: as above; assay type: in vivo; conditions: rated visually after about 3 weeks
Description: as §1

Matricaria inodora = assay: as above; assay type: in vivo; conditions: rated visually after about 3 weeks
Description: as §1

Hordeum murinum = assay: as above; assay type: in vivo; conditions: application rate 1280 g/ha, rated visually after about 3 weeks
Description: as §1

Ipomoea purpurea = assay: as above; assay type: in vivo; conditions: rated visually after about 3 weeks
Description: as §1

Stellaria media = assay: as above; assay type: in vivo; conditions: rated visually after about 3 weeks
Description: as §1

Abutilon theophrasti = assay: as above; assay type: in vivo; conditions: about 3 weeks after treatment, 100% = plants have died, 0% = like control plants
Description: as §1

Amaranthus retroflexus = assay: as above; assay type: in vivo; conditions: about 3 weeks after treatment, 100% = plants have died, 0% = like control plants
Description: as §1

Viola tricolor = assay: as above; assay type: in vivo; conditions: rated visually after about 3 weeks
Description: as §1

Avena fatua = assay: as above; assay type: in vivo; conditions: rated visually after about 3 weeks
Description: as §1

Veronica persica = assay: as above; assay type: in vivo; conditions: application rate 1280 g/ha, about 3 weeks after treatment, 100% = plants have died, 0% = like control plants
Description: as §1

Echinochloa crus-galli = assay: as above; assay type: in vivo; conditions: about 3 weeks after treatment, 100% = plants have died, 0% = like control plants
Description: as §1

photosystem II (PS II) = target: T1, photosystem II (PS II) (Spinacia oleracea, UniProt P69560); assay: Measurement of the PS II activity in thylakoid membranes (DCPIP reduction, Experimental Part 3, Table E1); assay type: biochemical; conditions: spinach thylakoid membranes
T1 construct: the chloroplasts were osmotically ruptured and the thylakoid membranes were then obtained by centrifugation; from tissue; host or cells: thylakoid membranes from fresh spinach leaves
Procedure, shortened: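 Spinach leaf thylakoid membranes in 50 mM phosphate pH 6.8, 10 mM KCl, 120 μM DCPIP, under light. Compounds added from 100 μM DMSO solution (2.5% DMSO final). DCPIP reduction read as absorbance decrease at 595 nm over 10 min at 22 °C, reported as percent-inhibition classes.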

Row | SMILES | herbicidal activity on Alopecurus myosuroides (visual rating vs untreated controls) (Alopecurus myosuroides; application rate 320 g/ha) | herbicidal activity on Alopecurus myosuroides (visual rating vs untreated controls) (Alopecurus myosuroides; application rate 1280 g/ha) | herbicidal activity on Setaria viridis (visual rating vs untreated controls) (Setaria viridis; application rate 320 g/ha) | herbicidal activity on Setaria viridis (visual rating vs untreated controls) (Setaria viridis; application rate 1280 g/ha) | Polygonum convolvulus, herbicidal activity (Polygonum convolvulus; application rate 320 g/ha) | Polygonum convolvulus, herbicidal activity (Polygonum convolvulus; application rate 1280 g/ha) | Matricaria inodora, herbicidal activity (Matricaria inodora; application rate 1280 g/ha) | Hordeum murinum, herbicidal activity (Hordeum murinum) | Ipomoea purpurea, herbicidal activity (Ipomoea purpurea; application rate 1280 g/ha) | Stellaria media, herbicidal activity (Stellaria media; application rate 320 g/ha) | Stellaria media, herbicidal activity (Stellaria media; application rate 1280 g/ha) | herbicidal activity on Abutilon theophrasti (visual rating vs untreated controls) (Abutilon theophrasti; application rate 320 g/ha) | herbicidal activity on Abutilon theophrasti (visual rating vs untreated controls) (Abutilon theophrasti; application rate 1280 g/ha) | herbicidal activity on Amaranthus retroflexus (visual rating vs untreated controls) (Amaranthus retroflexus; application rate 1280 g/ha) | Viola tricolor, herbicidal activity (Viola tricolor; application rate 320 g/ha) | Viola tricolor, herbicidal activity (Viola tricolor; application rate 1280 g/ha) | Avena fatua, herbicidal activity (Avena fatua; application rate 1280 g/ha) | herbicidal activity on Veronica persica (visual rating vs untreated controls) (Veronica persica) | herbicidal activity on Echinochloa crus-galli (visual rating vs untreated controls) (Echinochloa crus-galli; application rate 1280 g/ha) | Effect (inhibition of PS II activity) (photosystem II (PS II)) | also measured
1 | CC1=CC(=O)N(c2cc(C(C)(C)C)on2)C1O (stereo not drawn) [I.1-162, 5-Hydroxy-4-methyl-1-(5-tert-butyl-1,2-isoxazol-3-yl)-1,5-dihydro-2H-pyrrol-2-one] | 90% | 100% | 100% | 100% | 100% | 100% | 100% | 100% | 100% | 100% | 100% | 100% | 100% | 100% | 100% | 100% | 100% | 100% | 100% | ++++ (inhibition≥90%) | Matricaria inodora, herbicidal activity (Matricaria inodora; application rate 320 g/ha): 100%; Ipomoea purpurea, herbicidal activity (Ipomoea purpurea; application rate 320 g/ha): 100%; herbicidal activity on Amaranthus retroflexus (visual rating vs untreated controls) (Amaranthus retroflexus; application rate 320 g/ha): 100%; Avena fatua, herbicidal activity (Avena fatua; application rate 320 g/ha): 90%; herbicidal activity on Echinochloa crus-galli (visual rating vs untreated controls) (Echinochloa crus-galli; application rate 320 g/ha): 100%
2 | CCC(=O)OC1C(C)=CC(=O)N1c1cc(C(C)(C)C)on1 (stereo not drawn) [I.5-162] | 90% | 100% | 100% | 100% | 100% | 100% | 100% | 100% | 90% | 100% | 100% | 100% | 100% | 100% | 100% | 100% | 100% | 100% | 100% | +++ (90%>inhibition≥70%) | –
